Assay results published in publication PMC6855144, “Examination of the Glycine Betaine-Dependent Methylotrophic Methanogenesis Pathway: Insights Into Anaerobic Quaternary Amine Methylotrophy” (Frontiers in Microbiology, 2019).

Target: T1, MV8460 (MtgB) (Methanolobus vulcani, UniProt A0A7Z8KPC2)
T1 construct: gene FKV42_08460
T1 sequence (A0A7Z8KPC2 1-475): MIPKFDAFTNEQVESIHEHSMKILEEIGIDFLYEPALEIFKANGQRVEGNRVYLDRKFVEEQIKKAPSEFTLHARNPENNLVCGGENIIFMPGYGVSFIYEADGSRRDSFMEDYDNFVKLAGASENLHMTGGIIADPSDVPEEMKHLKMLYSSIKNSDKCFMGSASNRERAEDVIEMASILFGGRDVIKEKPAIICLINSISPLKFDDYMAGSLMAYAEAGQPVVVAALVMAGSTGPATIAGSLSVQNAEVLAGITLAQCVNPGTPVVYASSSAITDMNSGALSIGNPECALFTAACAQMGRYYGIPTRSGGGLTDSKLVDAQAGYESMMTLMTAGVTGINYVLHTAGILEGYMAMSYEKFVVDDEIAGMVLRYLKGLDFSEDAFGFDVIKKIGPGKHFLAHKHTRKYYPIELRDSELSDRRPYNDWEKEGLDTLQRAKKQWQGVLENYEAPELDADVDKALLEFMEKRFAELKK
Assay: UV-vis, methylation of free cob(I)alamin at […] nm
Assay type: biochemical
Details: methyl donor 50 mM; co-substrate cob(I)alamin; 37 °C; anoxic

C[N+](C)(C)CC(=O)[O-] [GB, glycine betaine] was tested, and the “UV-vis, methylation of free cob(I)alamin at 540 nm” value was “We detected methylation of free cob(I)alamin by MV8460 using GB as the methyl donor”.
